# Data: patent publication US7524821B2, “Scaffolded maleimide clusters for multivalent peptide assembly” (priority 2002, dated 2009)
# Read-outs that look alike come from different tables or passages of the source.
# Experiments:
# [1] = Circular dichroism (CD) spectroscopy, α-helix content; format: physicochemical; conditions: based on [θ]222 and proposed formula, 50 mM phosphate buffer pH 7.4
# Experimental: FIG. 11. CD spectra of the MVP-1 and DP178. The spectra were recorded with 10 uM of DP178 and 2.5 uM of MVP-1 in a phosphate buffer (50 mM, pH 7.4) at 23° C.
# One application of the scaffolds is to induce special conformations of peptides. The circular dichroism (CD) spectra of the synthetic multivalent gp41 peptide (MVP-1) and peptide DP178 were recorded and compared (FIG. 11). It was shown that the multivalent assembling has a significant impact on the peptide conformation, leading to a great increase of the α-helical content for the peptide. […]
# Similarly, we measured the circular dichroism (CD) spectra of the cholic acid-based multivalent peptides (36a and 37b). […]
# The UV absorbance was run on Beckman DU 640 spectrophotometer. CD's spectrums were measured on Jasco-810 (CD-ORD) spectropolarimeter using quartz cuvette of 1 mm path length. […]
# The samples of tetravalent peptide 26, trivalent peptides 36a and 37b, template 3α, 7α, 12α-tri-(6-Amino-3-thia-hexy-oxyl)-24-hydroxyl-5β-cholane 32, and the single peptide DP178 were prepared in a concentration ranging from 2 to 18 μM in 50 mM phosphate buffer (pH 7.4). The exact concentration of each sample was detected by UV spectrometer just prior to CD measurement. […]
# [2] = Native gel filtration (aggregation); format: physicochemical; conditions: PBS, pH 7.2, 0.5 mM
# Text: Accordingly, the tetravalent gp41 peptides 25 and 26, each of which contains 4 strands of the 36-mer HIV-1 gp41 peptide DP178 (T20) were synthesized (FIG. 7). […] In order to ligate the peptide to the maleimide cluster, a cysteine residue was introduced at the C-terminus of the peptide during solid phase peptide synthesis.
# [3] = aqueous buffer pH 7.0; cited from earlier work
# HIV-1 = conditions: laboratory-adapted strains and primary isolates / different strains of HIV, cited from earlier work
substance,measurement,setting,value
enfuvirtide,content of α-helix,[1],18%
same,aggregation under native gel filtration,[2],form aggregates
same,concentration at which monomer/tetramer equilibrium and other aggregation patterns occur,[3],above 20 μM
same,concentration at which peptide is monomeric,[3],below 10 μM
same,inhibition of HIV membrane fusion,HIV-1,potent and broadly inhibitory activities
same,inhibition of HIV membrane fusion,HIV-1; listed as T20,potently inhibit
